Activity calls are given as the source filed them.
Columns and labels:
[1] = target: Kappa-type opioid receptor (Homo sapiens, UniProt P41145); assay: SAR analysis of small molecule agonists of the kappa opioid receptor via a luminescent beta-arrestin assay - Set 3. [Related pubchem assays (depositor defined):AID1777, AID1785, AID1786, AID1966, AID2133, AID2136, AID2284, AID2500]; assay type: functional
[2] = target: Sphingosine 1-phosphate receptor 1 (Homo sapiens, UniProt P21453); assay: Fluorescence-based counterscreen assay for S1P4 agonists: Cell-based dose response high throughput screening assay to identify agonists of the Sphingosine 1-Phosphate Receptor 1 (S1P1). [Related pubchem assays (depositor defined):AID1509, AID1523, AID1801, AID463107, AID463118, AID463119, AID463122, AID463123, AID463129, AID463225, AID504400, AID504460]; assay type: functional
[3] = target: Sphingosine 1-phosphate receptor 4 (Homo sapiens, UniProt O95977); assay: Fluorescence dose response cell-based high throughput screening assay for agonists of the Sphingosine 1-Phosphate Receptor 4 (S1P4). [Related pubchem assays: 1509 (Primary screen.), 1523 (Confirmation screen in triplicates.)]; assay type: functional
[4] = target: T1, G-protein coupled receptor 55 (Homo sapiens, UniProt Q9Y2T6); assay: GPR55 antagonists blocking LPI-driven arrestin recruitment, primary screen, imaging, U2OS, beta-arrestin-GFP, LPI agonist (AID 2013); assay type: functional;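 note: antagonist potency measured as reduced agonist-driven arrestin aggregation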
Cannabinoid receptor 1 [5] = target: T2, Cannabinoid receptor 1 (Homo sapiens, UniProt P21554); assay: SAR analysis of antagonists of the Cannabinoid Receptor 1 using an Image-Based Assay - Set 2. [Related pubchem assays (depositor defined):AID2013, AID2026]; assay type: functional
[6] = target: T3, G-protein coupled receptor 35 (Homo sapiens, UniProt Q9HC97); assay: SAR analysis of Agonists of the GPR35 Receptor using an Image-Based Assay - Set 2. [Related pubchem assays (depositor defined):AID2013, AID2026]; assay type: functional
Cannabinoid receptor 2 [7] = target: T4, Cannabinoid receptor 2 (Homo sapiens, UniProt P34972); assay: SAR analysis of antagonists of the Cannabinoid Receptor 2 using an Image-Based Assay. [Related pubchem assays (depositor defined):AID2013, AID2026]; assay type: functional
Cannabinoid receptor 1 [8] = target: T2, Cannabinoid receptor 1; assay: SAR analysis of agonists of the Cannabinoid Receptor 1 using an Image-Based Assay - Set 2. [Related pubchem assays (depositor defined):AID2013, AID2026]; assay type: functional
[9] = target: T3, G-protein coupled receptor 35; assay: SAR analysis of Antagonists of the GPR35 Receptor using an Image-Based Assay - Set 3. [Related pubchem assays (depositor defined):AID2013, AID2026]; assay type: functional
[10] = target: T1, G-protein coupled receptor 55; assay: GPR55 antagonist potency of analogs, SAR follow-up, imaging, U2OS, beta-arrestin-GFP, LPI agonist, set 2 (AID 2820); assay type: functional
Cannabinoid receptor 2 [11] = target: T4, Cannabinoid receptor 2; assay: SAR analysis of agonists of the Cannabinoid Receptor 2 using an Image-Based Assay. [Related pubchem assays (depositor defined):AID2013, AID2026]; assay type: functional
[12] = target: T5, Tyrosine-protein phosphatase non-receptor type 22 (Homo sapiens, UniProt Q9Y2R2); assay: LYP1 Fluorescent Assay using OMFP substrate for In Vitro dose response studies. [Related pubchem assays (depositor defined):AID1779, AID1784, AID435024]
T5 sequence (Q9Y2R2 whole entry): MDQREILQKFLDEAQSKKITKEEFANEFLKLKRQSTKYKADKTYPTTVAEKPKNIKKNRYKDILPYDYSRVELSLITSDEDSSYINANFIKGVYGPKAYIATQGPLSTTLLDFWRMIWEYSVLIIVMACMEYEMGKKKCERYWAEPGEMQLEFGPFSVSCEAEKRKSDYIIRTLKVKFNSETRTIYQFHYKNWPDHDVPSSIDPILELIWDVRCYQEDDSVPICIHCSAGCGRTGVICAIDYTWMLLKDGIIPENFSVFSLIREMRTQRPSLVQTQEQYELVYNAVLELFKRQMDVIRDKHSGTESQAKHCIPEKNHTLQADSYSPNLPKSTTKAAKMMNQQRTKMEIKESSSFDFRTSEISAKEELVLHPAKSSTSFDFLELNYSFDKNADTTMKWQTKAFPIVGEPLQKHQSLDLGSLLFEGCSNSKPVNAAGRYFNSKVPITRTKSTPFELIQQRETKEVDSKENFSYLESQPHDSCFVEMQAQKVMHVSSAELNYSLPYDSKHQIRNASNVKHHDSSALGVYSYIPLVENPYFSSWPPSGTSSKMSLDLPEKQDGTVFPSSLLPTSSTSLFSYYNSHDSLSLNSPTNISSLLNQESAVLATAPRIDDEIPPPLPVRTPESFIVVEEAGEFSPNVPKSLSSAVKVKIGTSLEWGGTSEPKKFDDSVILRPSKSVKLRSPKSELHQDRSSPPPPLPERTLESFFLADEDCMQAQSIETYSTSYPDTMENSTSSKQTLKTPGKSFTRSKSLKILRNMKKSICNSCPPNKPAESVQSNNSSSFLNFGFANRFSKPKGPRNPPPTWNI

[13] = target: T6, Tyrosine-protein phosphatase non-receptor type 7 (Homo sapiens, UniProt P35236); assay type: functional
T6 sequence (P35236 whole entry): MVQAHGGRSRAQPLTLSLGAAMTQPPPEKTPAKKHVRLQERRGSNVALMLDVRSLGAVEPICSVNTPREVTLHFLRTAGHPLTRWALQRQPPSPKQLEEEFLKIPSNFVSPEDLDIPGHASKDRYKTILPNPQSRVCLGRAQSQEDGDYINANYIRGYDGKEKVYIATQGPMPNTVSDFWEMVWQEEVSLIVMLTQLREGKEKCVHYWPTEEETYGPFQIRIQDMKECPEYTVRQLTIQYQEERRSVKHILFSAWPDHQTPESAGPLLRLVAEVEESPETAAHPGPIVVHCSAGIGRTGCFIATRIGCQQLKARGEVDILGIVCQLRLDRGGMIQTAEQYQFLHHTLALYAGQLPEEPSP

[14] = target: T6, Tyrosine-protein phosphatase non-receptor type 7; assay: HTS HePTP Fluorescent Assay using OMFP substrate for In Vitro dose response studies. [Related pubchem assays (depositor defined):AID1059, AID1077, AID1784, AID2068, AID2085, AID435032, AID521]; assay type: functional
[15] = target: T5, Tyrosine-protein phosphatase non-receptor type 22; assay: inhibitors of LYP phosphatase, biochemical, fluorescence intensity, uHTS (AID 1779)
[16] = target: T5, Tyrosine-protein phosphatase non-receptor type 22; assay type: functional
[17] = target: T5, Tyrosine-protein phosphatase non-receptor type 22; assay type: functional; remark: listed apart in the source
[18] = HEp-2 cell cytotoxicity, dose response, cytotoxicity control for RSV inhibitor project, HTS (AID 2410); assay type: functional; conditions: human respiratory syncytial virus
[19] = mammalian cell cytotoxicity, dose response, cytotoxicity control, plate reader, cherry-pick samples (AID 504397); assay type: functional, cell-based
HeLa = assay: HeLa cell cytotoxicity, dose response, cytotoxicity control for MITF activator project, CellTiter-Glo luminescence, cherry-pick samples (AID 540259); assay type: functional, cell-based; conditions: Homo sapiens
[20] = target: T3, G-protein coupled receptor 35; assay: SAR analysis of Agonists of the GPR35 Receptor using an Image-Based Assay - Set 4. [Related pubchem assays (depositor defined):AID2013, AID2026]; assay type: functional
Cannabinoid receptor 1 [21] = target: T2, Cannabinoid receptor 1; assay: SAR analysis of agonists of the Cannabinoid Receptor 1 using an Image-Based Assay - Set 4. [Related pubchem assays (depositor defined):AID2013, AID2026]; assay type: functional
[22] = target: T3, G-protein coupled receptor 35; assay: SAR analysis of Antagonists of the GPR35 Receptor using an Image-Based Assay - Set 6. [Related pubchem assays (depositor defined):AID2013, AID2026]; assay type: functional
Cannabinoid receptor 1 [23] = target: T2, Cannabinoid receptor 1; assay: SAR analysis of antagonists of the Cannabinoid Receptor 1 using an Image-Based Assay - Set 4. [Related pubchem assays (depositor defined):AID2013, AID2026]; assay type: functional
[24] = target: T1, G-protein coupled receptor 55; assay: SAR Analysis of Selective Antagonists of GPR55 using an Image-Based Assay - Set 4. [Related pubchem assays (depositor defined):AID2013, AID2026]; assay type: functional
Cannabinoid receptor 2 [25] = target: T4, Cannabinoid receptor 2; assay: SAR analysis of antagonists of the Cannabinoid Receptor 2 using an Image-Based Assay - Set 3. [Related pubchem assays (depositor defined):AID2013, AID2026]; assay type: functional
Cannabinoid receptor 2 [26] = target: T4, Cannabinoid receptor 2; assay: SAR analysis of agonists of the Cannabinoid Receptor 2 using an Image-Based Assay - Set 3. [Related pubchem assays (depositor defined):AID2013, AID2026]; assay type: functional

T1 sequence (Q9Y2T6 whole entry): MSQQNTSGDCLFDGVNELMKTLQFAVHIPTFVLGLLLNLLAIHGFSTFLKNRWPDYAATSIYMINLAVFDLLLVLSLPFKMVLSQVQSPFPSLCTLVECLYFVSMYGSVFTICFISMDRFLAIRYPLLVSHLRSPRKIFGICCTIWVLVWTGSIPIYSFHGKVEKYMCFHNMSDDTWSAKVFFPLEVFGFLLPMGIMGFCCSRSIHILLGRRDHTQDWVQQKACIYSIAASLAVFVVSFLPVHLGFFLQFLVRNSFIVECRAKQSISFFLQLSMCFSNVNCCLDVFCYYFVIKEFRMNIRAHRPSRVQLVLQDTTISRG
T3 sequence (Q9HC97 whole entry): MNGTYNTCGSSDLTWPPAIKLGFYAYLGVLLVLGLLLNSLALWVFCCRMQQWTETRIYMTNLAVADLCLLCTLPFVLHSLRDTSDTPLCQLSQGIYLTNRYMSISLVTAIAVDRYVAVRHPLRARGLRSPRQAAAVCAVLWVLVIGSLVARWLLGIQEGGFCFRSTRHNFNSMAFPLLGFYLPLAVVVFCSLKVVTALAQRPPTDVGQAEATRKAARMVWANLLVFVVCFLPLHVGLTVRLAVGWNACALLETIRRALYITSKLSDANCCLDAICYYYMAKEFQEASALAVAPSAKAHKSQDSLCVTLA
T4 sequence (P34972 whole entry): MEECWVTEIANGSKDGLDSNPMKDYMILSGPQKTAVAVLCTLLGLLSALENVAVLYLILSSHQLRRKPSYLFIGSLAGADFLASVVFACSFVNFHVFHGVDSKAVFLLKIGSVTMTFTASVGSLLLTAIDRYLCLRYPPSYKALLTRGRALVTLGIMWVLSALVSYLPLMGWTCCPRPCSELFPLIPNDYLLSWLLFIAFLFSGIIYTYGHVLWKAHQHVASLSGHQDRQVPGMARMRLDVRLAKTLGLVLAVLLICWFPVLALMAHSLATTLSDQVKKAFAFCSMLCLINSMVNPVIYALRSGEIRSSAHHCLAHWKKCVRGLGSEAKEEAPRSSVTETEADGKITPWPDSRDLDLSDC
T2 sequence (P21554 whole entry): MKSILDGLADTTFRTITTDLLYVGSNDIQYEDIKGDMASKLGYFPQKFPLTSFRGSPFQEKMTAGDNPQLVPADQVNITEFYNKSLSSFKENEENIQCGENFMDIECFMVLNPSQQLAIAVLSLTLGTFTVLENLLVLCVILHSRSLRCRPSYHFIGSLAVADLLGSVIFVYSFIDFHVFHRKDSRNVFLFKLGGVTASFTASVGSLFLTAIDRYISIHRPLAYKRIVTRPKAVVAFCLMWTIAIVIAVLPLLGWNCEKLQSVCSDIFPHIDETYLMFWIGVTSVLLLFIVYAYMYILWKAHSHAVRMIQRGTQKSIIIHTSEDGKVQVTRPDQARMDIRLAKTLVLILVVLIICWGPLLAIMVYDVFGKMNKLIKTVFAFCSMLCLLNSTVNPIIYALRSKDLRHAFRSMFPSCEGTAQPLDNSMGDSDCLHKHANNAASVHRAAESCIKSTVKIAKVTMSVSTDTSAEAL
Sequence of Sphingosine 1-phosphate receptor 4 (O95977 whole entry): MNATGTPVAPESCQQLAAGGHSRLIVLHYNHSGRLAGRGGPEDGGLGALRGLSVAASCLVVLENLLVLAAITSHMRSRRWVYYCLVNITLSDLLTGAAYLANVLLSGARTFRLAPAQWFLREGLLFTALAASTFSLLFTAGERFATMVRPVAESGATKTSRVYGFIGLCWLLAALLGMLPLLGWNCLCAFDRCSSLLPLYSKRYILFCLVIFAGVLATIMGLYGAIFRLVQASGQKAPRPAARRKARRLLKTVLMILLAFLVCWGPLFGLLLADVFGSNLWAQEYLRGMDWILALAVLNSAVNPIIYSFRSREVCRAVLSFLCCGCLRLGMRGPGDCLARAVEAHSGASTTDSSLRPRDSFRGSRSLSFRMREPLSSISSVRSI
Sequence of Kappa-type opioid receptor (P41145 whole entry): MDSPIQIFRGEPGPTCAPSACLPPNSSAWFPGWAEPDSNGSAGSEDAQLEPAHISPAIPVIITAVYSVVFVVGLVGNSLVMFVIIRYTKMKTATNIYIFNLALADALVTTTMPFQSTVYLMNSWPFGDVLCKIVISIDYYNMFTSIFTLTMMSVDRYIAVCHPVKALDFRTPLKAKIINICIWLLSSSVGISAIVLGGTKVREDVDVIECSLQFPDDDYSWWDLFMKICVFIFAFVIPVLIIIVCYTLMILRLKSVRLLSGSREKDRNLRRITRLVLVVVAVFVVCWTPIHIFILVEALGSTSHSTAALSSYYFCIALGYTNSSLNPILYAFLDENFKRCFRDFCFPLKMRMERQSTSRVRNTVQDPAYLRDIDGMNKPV
Sequence of Sphingosine 1-phosphate receptor 1 (P21453 whole entry): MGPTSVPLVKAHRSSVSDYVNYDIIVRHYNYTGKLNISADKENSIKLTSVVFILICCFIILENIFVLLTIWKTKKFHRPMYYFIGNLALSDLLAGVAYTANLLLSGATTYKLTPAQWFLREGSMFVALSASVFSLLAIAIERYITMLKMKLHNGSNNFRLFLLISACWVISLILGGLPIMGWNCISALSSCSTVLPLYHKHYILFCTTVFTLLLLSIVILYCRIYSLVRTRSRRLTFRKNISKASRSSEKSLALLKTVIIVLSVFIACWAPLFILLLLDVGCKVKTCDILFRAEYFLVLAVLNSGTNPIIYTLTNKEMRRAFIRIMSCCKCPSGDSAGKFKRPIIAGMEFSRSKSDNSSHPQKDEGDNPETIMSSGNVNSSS

## FC(F)(F)c1cc(CSc2nnc(-c3ccc(Br)cc3)n2Cc2ccco2)ccc1Cl
[1]
  EC50: 11 µM (inactive)

## Cn1c(-c2cc3ccc(OC(=O)C(C)(C)C)cc3oc2=O)nc2ccccc21
[2]
  EC50: 33.5 µM (inactive)
[3]
  EC50: 37 µM (not active)

## COC(=O)C1=C(N)c2ccccc2C1(C#N)c1ccccc1 (configuration not stated)
[4]
  IC50: 1.76 µM (active)
Cannabinoid receptor 1 [5]
  IC50: > 32 µM (inactive)
[6]
  EC50: > 32 µM (inactive)
Cannabinoid receptor 2 [7]
  IC50: > 32 µM (inactive)
Cannabinoid receptor 1 [8]
  EC50: > 32 µM (inactive)
[9]
  IC50: > 32 µM (inactive)
[10]
  IC50: 2.36 µM (active)
Cannabinoid receptor 2 [11]
  EC50: > 32 µM (inactive)

## O=C(N/N=C/c1ccc2c(c1)OCO2)c1cc(-c2ccncc2)nc2ccccc12
[12]
  IC50: > 99 µM (inactive)
[13]
  IC50: > 79.4 µM (inactive)
[14]
  IC50: > 99 µM (inactive)
[15]
  IC50: > 99 µM (inactive)
[16]
  IC50: > 79.4 µM (inactive)
[17]
  IC50: > 79.4 µM (inactive)

## COc1cccc2sc3ccc(C#CC4(O)CCCCC4)cc3c(=O)c12
[18]
  CC50: 13.9 µM (active)
[19]
  AC50: 85.7 µM (active)
HeLa
  AC50: 39.6 µM (active)

## CCOc1ccc(-c2n[nH]c(C)c2-c2ccccc2)c(O)c1
[20]
  EC50: > 32 µM (inactive)
Cannabinoid receptor 1 [21]
  EC50: > 32 µM (inactive)
[22]
  IC50: > 32 µM (inactive)
Cannabinoid receptor 1 [23]
  IC50: 4.14 µM (active)
[24]
  IC50: 18.4 µM (inactive)
Cannabinoid receptor 2 [25]
  IC50: 23.8 µM (inactive)
Cannabinoid receptor 2 [26]
  EC50: > 32 µM (inactive)

— ChEMBL document CHEMBL1201862, “PubChem BioAssay data set” (2004)
